The values that follow are results of earlier work, collected in US4745233A, “Derivatives of 1,1,2,2-tetramethyl-1,2-bis-(2-fluoro-4-hydroxyphenyl)-ethane” (Asta-Werke Aktiengesellschaft, priority 1985, dated 1988).

Series [1] deals with oestrone- or oestradiol-stimulated uterus growth. Conditions: juvenile mice; known compound.
Series [2] concerns DMBA-induced mammary carcinomas. The conditions noted are these: Sprague Dawley rats; known compound.
For the next series, the target named is T1, oestrogen receptor (Bos taurus, UniProt P49884).
T1 sequence (P49884 1-596): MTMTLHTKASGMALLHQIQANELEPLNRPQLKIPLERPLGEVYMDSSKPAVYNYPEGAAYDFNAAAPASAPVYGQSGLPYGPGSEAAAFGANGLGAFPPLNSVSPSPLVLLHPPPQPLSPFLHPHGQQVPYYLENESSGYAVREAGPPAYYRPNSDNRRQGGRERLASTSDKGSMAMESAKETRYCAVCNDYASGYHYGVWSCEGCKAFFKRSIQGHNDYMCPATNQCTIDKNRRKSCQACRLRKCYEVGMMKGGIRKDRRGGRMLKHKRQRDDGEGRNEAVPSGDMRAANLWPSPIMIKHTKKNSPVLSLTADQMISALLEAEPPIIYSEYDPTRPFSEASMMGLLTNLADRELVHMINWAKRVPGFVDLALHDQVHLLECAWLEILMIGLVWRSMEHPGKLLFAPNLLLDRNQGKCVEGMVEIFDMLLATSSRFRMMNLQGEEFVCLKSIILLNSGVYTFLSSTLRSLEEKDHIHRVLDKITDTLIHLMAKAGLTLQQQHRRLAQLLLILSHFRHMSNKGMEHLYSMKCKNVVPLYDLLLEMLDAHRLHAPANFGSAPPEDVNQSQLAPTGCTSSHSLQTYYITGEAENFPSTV
Conditions: known compound, literature.

As for `CC(C)(c1ccc(O)cc1)C(C)(C)c1ccc(O)cc1` [1,1,2,2-tetramethyl-1,2-bis-(4-hydroxyphenyl)-ethane], the “antioestrogen effect: inhibition of oestrone- or oestradiol-stimulated uterus growth” value in series [1] is “strong effect as antioestrogen”. Further, the “growth of DMBA-induced mammary carcinoma” value in series [2] was “inhibits the growth”. On oestrogen receptor, the relative binding affinity was 3.6.
